The source of these data is publication PMC8041276 (ACS Chemical Neuroscience, 2021).

The subject of one data set is HepG2 cells. The data set is described as follows: MTT assay, hepatotoxicity in HepG2 cells. The conditions noted are these: HepG2, 24 h. The data set is classed as cell-based, human. How it is done:
Human hepatocellular carcinoma cells (HepG2) were cultured using standard procedures (protocol from ATCC). Cells were cultured in Eagle’s minimum essential medium (EMEM) in flasks with an area of 25 cm^2 (Falcon), supplemented with 10% of fetal bovine serum (FBS, Life Technologies) with the addition of 100 IU/mL penicillin (Sigma-Aldrich) and 100 μg/mL streptomycin (Sigma-Aldrich) and incubated at 37 °C in a humidified atmosphere with 5% CO2.
The MTT assay was used to determine the viability of HepG2 cells incubated in the presence of compound 27 and DOX. Cells were seeded at a density of 2 × 10^4 in 96-well plates. […] Following cell exposure to each compound 10 μL of MTT reagent (Sigma-Aldrich) was added to each well. After 4 h of incubation (37 °C, 5% CO2) the culture medium was aspirated and formazan crystals were dissolved in 100 μL of DMSO. Then, optical density (OD) at 570 nm was determined on a plate reader (Spectra Max iD3, Molecular Devices). Each individual experiment was repeated at least three times.
(Formazan colour is commonly taken as a measure of viable cells.)

Data set [1] can be described thus: Metabolic stability in rat liver microsomes. The data set is classed as in vitro ADME. The conditions noted are these: male, pH 7.4, 10 μM compound, read-out: intrinsic clearance. On the procedure: Metabolic stability of compounds 27 and 28 was analyzed using incubation systems composed of tested compound (10 μM), rat liver microsomes (RLMs, microsomes from rat male liver, pooled; 0.4 mg/mL; Sigma-Aldrich), NADPH-regenerating system (NADP+, glucose-6-phosphate, and glucose-6-phosphate dehydrogenase in 100 mM potassium buffer, pH 7.4; all from Sigma-Aldrich) and potassium buffer, pH 7.4. […] First, all samples containing incubation mixture (without NADPH-regenerating system) were preincubated in thermoblock at 37 °C for 10 min. Then reaction was initiated by the addition of NADPH-regenerating system. In control samples NADPH-regenerating system was replaced with potassium buffer. Probes were incubated for 30 and 60 min at 37 °C. After addition of internal standard (pentoxifylline, 10 μM) biotransformation process was stopped by addition of perchloric acid. Next, samples were centrifuged and supernatants were analyzed using UPLC/MS (Waters Corporation, Milford, MA). All experiments were run in duplicates. Half-life time was evaluated using nonlinear regression model using GraphPad Prism software, and intrinsic clearance was calculated from the equation Clint = (volume of incubation [μL]/protein in the incubation [mg])0.693/t1/2.[46]

Data set [2] is described as follows: In vivo pharmacokinetic study, plasma and brain. Also on record: species or system male Wistar rats. To be noted: male, Wistar, po, rat; for AUC(0-t) / Cmax / MRT / Tmax / half-life: 10 mg/kg p.o.; for half-life: read-out: t0.5 (terminal half-life). How it is done: Subsequently, the pharmacokinetic profile of 27 and 28 was assessed in male Wistar rats after single intragastric administration at the dose of 10 mg/kg. The studied compounds were rapidly absorbed and crossed the blood–brain barrier, reaching the Cmax in 5 min in both plasma and brain.
For LC–MS/MS analyses, an HPLC Nexera system (Shimadzu, Kyoto, Japan) combined with the triple quadrupole API 3200 mass spectrometer (SCIEX, Framingham, MA, USA) interfaced via an electrospray source and controlled by Analyst software version 1.5.2 (SCIEX, Framingham, MA, USA) was applied.
The chromatographic separation was performed on Acclaim Polar Advantage II (3.0 mm × 74 mm, 3 μm, 120A, Dionex, USA) analytical column using the mobile phase composed of eluent A, HPLC grade acetonitrile acidified with 0.1% (v/v) formic acid, and eluent B, HPLC grade water with 0.1% (v/v) formic acid. The elution gradient started with 90% of eluent B, increasing to 90% of eluent A over 5 min, returned to 90% of eluent B over 5 min, and maintained at 90% of eluent B for 5 min. The mobile phase flow rate was set at 400 μL/min. The injection volume was 20 μL, and the total time of analysis was 15 min. The temperatures of the column thermostat and the autosampler were set at 40 and 10 °C, respectively.
For increased sensitivity and selectivity, the MS/MS data acquisition was performed in the selected reaction monitoring (SRM) mode. The ions measured were m/z 585.1 (Q1) and m/z 516.2 (Q3) for compounds 27 and 28 and m/z 305 (Q1) and m/z 248 (Q3) for IS. The quantification was done via peak area ratio.
Protein precipitation with acetonitrile was used for purification of plasma and brain homogenates. The whole brain was homogenized using an electric tissue homogenizer in an appropriate amount of phosphate buffer (pH 7.4) in 1:2.5 ratio. Thereafter, a volume of 100 μL of plasma or brain homogenate was transferred to 2 mL Eppendorf tubes, and a 5 μL aliquot of the internal standard (IS, PH002437, Merck, Darmstadt, Germany) in working solution (5 μg/mL) was added and vortex-mixed for 10 s. Thereafter, 200 μL of acetonitrile was added and mixed for 20 min, followed by centrifugation (28 672g) for 10 min at 4 °C. The supernatant was transferred to chromatographic vials, and 20 μL was injected into the analytical column.
A group of 64 male, 8-week-old, Wistar strain outbred rats weighing between 200 and 220 g each were purchased from the Animal House at the Faculty of Pharmacy, Jagiellonian University Medical College, Krakow (Poland) and housed in standard polycarbonate cages, in groups of four animals per cage. Environmental conditions during the study were constant: relative humidity 50–60%, temperature 22 ± 2 °C, normal 12 h light–dark cycle (7 a.m. to 7 p.m. light). Standard rodent chow and water were available ad libitum. Compounds 27 and 28 were dissolved in saline and administered by intragastric gavage at a dose of 10 mg/kg, and the animals were sacrificed at specific time-points: 0 min, predose (n = 4), 5 min (n = 4), 15 min (n = 4), 30 min (n = 4), 60 min (n = 4), 120 min (n = 4), 240 min (n = 4), and 480 min (n = 4) after administration. Animals were deeply anaesthetized by ip injections of 50 mg/kg ketamine plus 8 mg/kg xylazine before sacrifice. First, the blood was collected into heparinized tubes, and the blood samples were centrifuged at 1000g for 10 min to obtain plasma. Following the animals’ euthanasia, the whole brain was collected. The plasma and brain samples were immediately frozen at −80 °C for future analysis. All experimental procedures were carried out in accordance with EU Directive 2010/63/EU and approved by the I Local Ethics Committee for Experiments on Animals of the Jagiellonian University in Krakow, Poland (No. 83/2018).

Read-outs that look alike come from different tables or passages of the source.

`O=C(N[C@@H]1CCNC1)c1ccn(S(=O)(=O)c2cccc(Cl)c2)c1-c1ccc(F)cc1` [Compound 27, (R)-2-(4-Fluorophenyl)-1-[(3-chlorophenyl)sulfonyl]-N-(pyrrolidin-3-yl)-1H-pyrrole-3-carboxamide]: the “metabolic activity of cells (MTT test)” value in the data set on HepG2 cells (0.1–25 μM) was “did not impair the metabolic activity of cells”. For the same compound, the half-inhibitory concentration (IC50) in the data set on HepG2 cells (Homo sapiens, printed in Figure 5A, read-out: IC50, cellular viability (MTT)) was 32.3 µM. Further, the microsomal CLint at 10 μM in data set [1] amounted to 0.82 µL/min/mg. In data set [2] (brain/plasma, 10 mg/kg intragastric, read-out: brain/plasma ratio), the Kp turned out to be 0.63. Besides, in data set [2] (brain), the area under the curve AUC(0-t) is 812 ng·h/mL, the Cmax was 427 ng/g, the MRT is 3.02 h and the time of peak concentration (Tmax) was 5 min. The half-life in data set [2] (brain) worked out at 4.18 h. For the same compound, in data set [2] (plasma), the AUC(0-t) is 1290 ng·h/mL, the peak level (Cmax) was 1040 ng/mL, the mean residence time (MRT) was 2.72 h and the time of peak concentration (Tmax) was 5 min. The half-life in data set [2] (plasma) was 1.96 h.
As to `O=C(N[C@H]1CCNC1)c1ccn(S(=O)(=O)c2cccc(Cl)c2)c1-c1ccc(F)cc1` [Compound 28, (S)-2-(4-Fluorophenyl)-1-[(3-chlorophenyl)sulfonyl]-N-(pyrrolidin-3-yl)-1H-pyrrole-3-carboxamide], in data set [1], the microsomal CLint at 10 μM amounted to 1.03 µL/min/mg. For the same compound, in data set [2] (brain), the AUC(0-t) was 289 ng·h/mL, the peak level (Cmax) was 51.7 ng/g, the MRT is 4.43 h and the time to peak (Tmax) was 5 min. In addition, in data set [2] (plasma), the AUC(0-t) was 3390 ng·h/mL, the peak level (Cmax) was 3500 ng/mL, the mean residence time MRT was 3.35 h and the time to peak (Tmax) is 5 min. For the same compound, in data set [2] (plasma), the half-life turned out to be 4.95 h.

Usually IC50 stands for the midpoint of a concentration-inhibition curve. One may read the AUC(0-t) as the area under the concentration-time curve up to a stated or last time point. A high value points to high exposure. Broadly, the Cmax is the peak of the concentration-time curve. In general, MRT refers to the average time that molecules of a dose stay in the body. In general, Tmax refers to the time at which the peak concentration occurs. A word on the half-life: it is how long it takes for the measured level to halve.
